{
  "source": "patent US4196217A",
  "about": "“Hydroxylated amines with bacteriostatic activity” (priority 1978, dated 1980)",
  "key": {"Escherichia coli": {"system": "Escherichia coli", "experiment": "bacteriostatic activity (MIC), Escherichia coli", "assay_type": "cell-based", "settings": "for MIC: Escherichia coli, 48 h; for M.I.C.: hydrochloride", "procedure": "The medium containing the solution to be tested is inoculated in the form of three single striae with a 10^-5 times dilution of a bacterial culture aged 16 to 18 hours grown in salted peptone broth at a temperature of 37° C.\n(§1) After inoculation, the media are stored at 37° C. for 48 hours, after which the bacterial growth is inspected. The MIC (minimum inhibiting concentrations) are expressed in micrograms of pure product per cubic centimeter of gelose medium required for inhibiting the culture (μg/cc). The control substance used is benzalconium chloride.\nTests were also carried out to determine the bacteriostatic activity of other compounds according to the invention by the method described above and in comparison with known substances, in particular with benzalconium chloride (compound T in the Tables)."}, "[1]": {"system": "spores of B. subtilis var. Niger", "experiment": "sporostatic activity (b), porous membrane with rinses", "assay_type": "cell-based", "source_text": "(b) A porous membrane 0.45μ thick is placed aseptically in a sterile filter support, covered with 10 cc of sterile distilled water containing 1 cc of mother solution of the product, followed by the addition of 1 cc of a suspension of spores of B. subtilis var. Niger containing approximately 40 spores. These liquids are drawn through the membrane, after which the membrane is transferred aseptically to a culture medium and placed in an oven. The operation is recommenced using up to 5 rinses of the membrane per 10 cc of sterile distilled water. The number of colonies developing is then determined."}, "in vivo": {"experiment": "in vivo", "settings": "mouse, mice, intravenous, both after 3 minutes and after 14 days", "source_text": "Acute toxicity was again determined in male mice by intravenous administration."}, "Enterbacter cloacae": {"system": "Enterbacter cloacae", "experiment": "bacteriostatic activity (MIC), Enterbacter cloacae", "assay_type": "cell-based", "settings": "48 h, Table I, 37° C., read-out: MIC", "procedure": "as §1, with “The medium containing the solution to be tested is inoculated in the form of three single striae with a 10^-5 times dilution of a bacterial culture aged 16 to 18 hours grown in salted peptone broth at a temperature of 37° C. After” for “After”"}, "Ps. aeruginosa": {"system": "Ps. aeruginosa", "experiment": "in vivo effect on infection of excised wounds in rats", "set-up": "species or system rats infected with Ps. aeruginosa", "procedure": "The activity of the compound of Example 1 was also tested in vivo, in particular the compound was tested for its effect on Bacillus pyocyaneus in the following manner:\nRats are intravenously injected with 1 ml of a 10^8 solution of Ps. aeruginosa. A 20 cm^2 cutaneous excision was then made in the animals.\n30 minutes after the injection, the bacteria injected were detected in the vicinity of the wound by the replica method on a solid nutritive medium.\nOne group of rats was sprayed with the compound of Example 1 (aqueous solution) in the vicinity of the wounds (1 to 3 times daily).\nA group of control rats were sprayed with sterile distilled water."}, "Bacillus pyocyaneus": {"system": "Bacillus pyocyaneus", "experiment": "bactericidal concentration on 6 different strains", "assay_type": "cell-based"}, "Bacillus subtilis": {"system": "Bacillus subtilis", "experiment": "bactericidal activity, Bacillus subtilis", "assay_type": "cell-based", "settings": "Table II, 2 hours contact, laboratory temperature, read-out: MIC (bactericidal activity)", "procedure": "Bactericidal activity is determined by the following methods: A titrate suspension of bacteria is brought into contact over a period of 2 hours at the temperature of the laboratory with increasing dilutions of the test product. The number of bacteria still alive are counted after passage through a filtering membrane."}, "spores": {"system": "spores", "experiment": "sporocidal activity", "assay_type": "cell-based", "settings": "especially above 35° C. and at a pH around 7"}, "[2]": {"settings": "aqueous solution sprayed near wounds, 1 to 3 times daily"}},
  "note": "Where “and” joins values, the source holds several entries; their conditions need not be identical. Equal values may be shown once. Read-outs that look alike come from different tables or passages of the source.",
  "data": [
    {"smiles": "CCCCCCCCCCOCC(O)CN.Cl", "note": "(stereo not shown) [Compound 1, 3-decyloxy-2-hydroxy-1-aminopropane hydrochloride]", "values": [
      {"measurement": "MIC", "setting": "Escherichia coli; Table I, with 20% of serum, 37° C., 48 hours, read-out: MIC", "result": 75, "unit": "µg/mL"},
      {"measurement": "MIC", "setting": "Escherichia coli; Table I, without serum, 37° C., 48 hours, read-out: MIC", "result": 20, "unit": "µg/mL"},
      {"measurement": "MIC", "setting": "Escherichia coli; Table VI, bacteriostase containing 20% of serum, read-out: M.I.C.", "result": 60, "unit": "µg/mL"},
      {"measurement": "MIC", "setting": "Escherichia coli; Table VI, bacteriostase without serum, read-out: M.I.C.", "result": 20, "unit": "µg/mL"},
      {"measurement": "M.I.C.", "setting": "Escherichia coli; Table VI, bacteriostase containing 20% of serum", "result": "80 μg/cc and 75 μg/cc and 100 μg/cc"},
      {"measurement": "M.I.C.", "setting": "Escherichia coli; Table VI, bacteriostase without serum", "result": "25 μg/cc and 40 μg/cc"},
      {"measurement": "number of colonies (No = 37)", "setting": "[1]; 0 rinses of the membrane", "result": 3},
      {"measurement": "number of colonies (No = 37)", "setting": "[1]; 1 rinse of the membrane", "result": 4},
      {"measurement": "number of colonies (No = 37)", "setting": "[1]; 2 rinses of the membrane", "result": 35},
      {"measurement": "number of colonies (No = 37)", "setting": "[1]; 3 rinses of the membrane", "result": 38},
      {"measurement": "number of colonies (No = 37)", "setting": "[1]; 4 rinses of the membrane", "result": 48},
      {"measurement": "number of colonies (No = 37)", "setting": "[1]; 5 rinses of the membrane", "result": 55},
      {"measurement": "LD50", "setting": "in vivo", "result": 54.5, "unit": "mg/kg"},
      {"measurement": "MIC", "setting": "Enterbacter cloacae; with 20% of serum", "result": 80, "unit": "µg/mL"},
      {"measurement": "MIC", "setting": "Enterbacter cloacae; without serum", "result": 30, "unit": "µg/mL"},
      {"measurement": "number of colonies in positive cultures in relation to control rats", "setting": "Ps. aeruginosa; [2]", "result": "only a very small number of colonies"},
      {"measurement": "replica cultures totally negative", "setting": "Ps. aeruginosa; [2]", "result": 75, "unit": "%"},
      {"measurement": "local tolerance", "setting": "Ps. aeruginosa; rat, in vivo", "result": "good"},
      {"measurement": "healing process", "setting": "Ps. aeruginosa; sprayed near wounds, 1 to 3 times daily", "result": "normal"},
      {"measurement": "bactericidal concentration", "setting": "Bacillus pyocyaneus", "result": "very similar to the MIC"},
      {"measurement": "MBC", "setting": "Bacillus subtilis", "result": 50, "unit": "µg/mL"},
      {"measurement": "sporocidal activity", "setting": "spores", "result": "positive"}
    ]}
  ]
}
